Assays:
PAF-induced hypotension = PAF-induced hypotension test (Test D); type: in vivo, Wistar rat; settings: for decrease in blood pressure: within 10 sec.; for ED50: Rattus norvegicus, iv, Test D, Wistar rats, PAF-induced blood pressure decrease
Experimental: Male Wistar rats, weighing approximately 300 gm, are anesthetized and their carotid arteries cannulated to enable their diastolic and systolic arterial blood pressure measurements to be recorded. PAF is then administered intravenously at either 100 or 500 ng/kg, and the blood pressure drop (within 10 sec.) and recovery time required to reach the pre-injection blood pressure level are measured. […] In order to measure the effectiveness of a compound for both the inhibition of blood pressure decreases and shortening of the recovery time, the test compound is administered intravenously over a range of between 5 and 7 dosage levels (1 or 2 test animals per dose) and between 1 and 5 minutes prior to the introduction of PAF to generate an ED50.

[1] = system: PAF-induced human platelet aggregation; test: Platelet Aggregation Inhibition Assay (PAIA test), PAF-induced human platelet aggregation in vitro; type: cell-based; settings: human platelet rich plasma
Experimental: All of the compounds of formula I are useful as platelet activating factor inhibitors as indicated by their ability to inhibit platelet activating factor (PAF)-induced human platelet aggregation in vitro according to the Platelet Aggregation Inhibition Assay test (PAIA test) as follows: Human subjects are kept aspirin free for one week and fasted overnight. Platelet rich plasma (PRP) is prepared by centrifugation (200×g.) of freshly drawn blood anti-coagulated with 0.38% sodium citrate (final concentration). Platelet count is adjusted to 250,000 per μl using platelet poor plasma (PPP) obtained by a second centrifugation (700×g.) of the blood sample. An aliquot (0.38 ml) of the PRP is dispensed into cuvettes and maintained at room temperature (22° C.) until used (but for not more than two hours). […] All aggregations are allowed to proceed for 6 minutes for the addition of the inducing agent. The aggregation response is quantitated by determining the area under the curve (AUC). The AUC calculated for the inducing agent alone is considered to be one hundred percent. The potential percent inhibition of the aggregation response is determined by dividing the AUC generated in the presence of the compound by the AUC of the inducing agent alone, multiplying by 100 and then subtracting from 100.

[2] = biological target: T1, Human Platelet PAF Receptor (Homo sapiens, UniProt P25105); test: Human Platelet PAF Receptor Assay (Test A), inhibition of specific binding of [3H]-PAF to platelets; settings: [3H]-PAF specific binding
T1 construct: 500 μl of the above-described platelets; endogenous in cells; host or cells: washed human platelets from blood of healthy donors
Experimental: Platelet rich plasma (PRP) is prepared by centrifugation (250×g) of the blood for 20 minutes at room temperature. […] The platelets are resuspended at […] in TT/BSA containing 1.4 mM CaCl2.2H2 O and 0.7 mM MgCl2.6H2 O. All of the tests are conducted in duplicate and each of the test compounds is evaluated at concentrations of 100, 50, 1 and 0.1 μM. For each determination, the following solutions are mixed: 500 μl of the above-described platelets; 10 μl of [^3 H]-PAF (40,000 counts per minute (cpm) to a final concentration of […]); and either 10 μl of the test compound at 50× the desired final concentration, 10 μl of vehicle (total bound), or 10 μl of 1.85×10^-5 M cold PAF (non-specifically bound), […] The supernatants are then aspirated into the same scintillation vials as before and 10 ml, of Scintiverse II (a liquid scintillation cocktail) is added to and mixed therewith. The pellets are resuspended in 500 μl of Scintiverse II and mixed well. […] The amount of specific binding is calculated as the difference in cpm between the total bound [^3 H]-PAF and non-specifically bound [^3 H]-PAF. The percent inhibition of specific binding is determined by dividing the cpm specifically bound in the presence of the test compound by the cpm specifically bound in total, multiplying by 100 and then subtracting from 100. An IC50 (50% inhibitory concentration) value is generated by evaluating the test compound over the full concentration range.

[3] = system: PAF-mediated broncho-constriction; test: PAF-induced Pulmonary Inflation Pressure (PIP) Increase test (Test B); type: in vivo, guinea pig; settings: Cavia porcellus, iv, i.a., guinea pigs, PAF 100 ng/kg i.v., maximal PIP
Experimental: Male guinea pigs, weighing between 300 and 400 gm, are anesthetized, after which time trachea tube, carotid and jugular catheters are inserted. The test animal is then force ventilated employing a small animal Harvard respirator and the resistance to lung inflation (PIP) is measured utilizing a pressure transducer and recorder. The test compound is administered orally at 30 minutes prior to, intravenously (jugular) at 5 minutes prior to, or intraarterially at 1 to 5 minutes prior to the introduction of PAF. The PAF (C18 -Sandoz, Hanover) is dissolved in Tris-Tyrode's bovine serum albumin buffer and administered intravenously (jugular) at 100 ng/kg. Any blood pressure measurements taken are recorded from a transducer attached to the carotid catheter. Two responses are noted in the PIP recordings after the PAF is administered: (1) an immediate response which, in PAF-only treated test animals, averages out to between 70% and 80% more than the baseline PIP values. (This early response is also the greatest response and is, therefore, termed mazimal PIP); and (2) the long term (at least 30 minutes) PIP response which slowly decreases to baseline. A reading at 15 minutes after the administration of PAF is termed the endpoint PIP.

[4] = system: PAF-induced hemoconcentration; test: Decrease in inhibition of hemoconcentration over time (Test J); type: in vivo, guinea pig; settings: i.v., x times the ED50, time still inhibiting 50%
Experimental: (§1) Male guinea pigs, weighing between 300 and 400 gm, are anesthetized, after which time a femoral catheter is inserted. The test compound is administered intraarterially at one to five minutes prior to the introduction of PAF. The PAF (C18 -Sandoz, Hanover) is dissolved in Tris-Tyrode's bovine serum albumin buffer and administered intravenously (jugular) at 100 ng/kg.
(§2) To determine the hematocrit value, which is employed to index hemoconcentration and is defined as the percent of packed red blood cells in a sample of blood which is centrifuged to separate plasma from the cellular components, blood samples are collected in 50 μl heparinized hematocrit tubes. These samples are taken just prior to the injection of PAF, one minute subsequent to the injection of PAF and every two minutes thereafter until 15 minutes has lapsed subsequent to the injection of PAF. The tubes are then centrifuged and the percent of packed red blood cells (hematocrit) is measured (PAF induces a maximal increase in hematocrit at 5 to 7 minutes subsequent to the injection of PAF). The percent increase in hematocrit over the value prior to the injection of PAF is calculated. The hematocrit values obtained with the test compound are compared to the hemoconcentration values obtained with PAF alone and are expressed as percent inhibition of percent increase in hematocrit. From the values obtained, an ED50 is generated.
Similarly, a decrease in inhibition of hemoconcentration over time (Test J) can be measured by a modification of Test C described above wherein an amount of the test compound which is x times the ED50 for the compound is intravenously administered to the test animals. By observing the time at which the test compound still inhibits 50% of the hemoconcentration caused by the PAF challenge, the rate of loss of the test compound can be determined employing the above equation.

[5] = system: PAF-induced bronchoconstriction; test: Decrease in inhibition of bronchoconstriction over time (Test I); type: in vivo, guinea pig; settings: i.v., x times the ED50, time still inhibiting 50%
Experimental: Male guinea pigs, weighing between 300 and 400 gm, are anesthetized, after which time trachea tube, carotid and jugular catheters are inserted. The test animal is then force ventilated employing a small animal Harvard respirator and the resistance to lung inflation (PIP) is measured utilizing a pressure transducer and recorder. The test compound is administered orally at 30 minutes prior to, intravenously (jugular) at 5 minutes prior to, or intraarterially at 1 to 5 minutes prior to the introduction of PAF. The PAF (C18 -Sandoz, Hanover) is dissolved in Tris-Tyrode's bovine serum albumin buffer and administered intravenously (jugular) at 100 ng/kg. Any blood pressure measurements taken are recorded from a transducer attached to the carotid catheter. […] (This early response is also the greatest response and is, therefore, termed mazimal PIP); and (2) the long term (at least 30 minutes) PIP response which slowly decreases to baseline. A reading at 15 minutes after the administration of PAF is termed the endpoint PIP.
Thus, a decrease in inhibition of bronchoconstriction over time (Test I) can be measured by a modification of Test B described above wherein an amount of the test compound which is x times the ED50 for the compound is intravenously administered to the test animals. By observing the time at which the test compound still inhibits 50% of the bronchoconstriction caused by the PAF challenge, the rate of loss of the test compound can be determined employing the following equation: [formula]

[6] = system: PAF-mediated extravasation; test: PAF-induced Extravasation test (Test C), hemoconcentration; type: in vivo, guinea pig; settings: Cavia porcellus, iv, i.a., guinea pigs, PAF 100 ng/kg i.v., increase in hematocrit
Experimental: as §1, §2

T1 sequence (P25105 whole entry): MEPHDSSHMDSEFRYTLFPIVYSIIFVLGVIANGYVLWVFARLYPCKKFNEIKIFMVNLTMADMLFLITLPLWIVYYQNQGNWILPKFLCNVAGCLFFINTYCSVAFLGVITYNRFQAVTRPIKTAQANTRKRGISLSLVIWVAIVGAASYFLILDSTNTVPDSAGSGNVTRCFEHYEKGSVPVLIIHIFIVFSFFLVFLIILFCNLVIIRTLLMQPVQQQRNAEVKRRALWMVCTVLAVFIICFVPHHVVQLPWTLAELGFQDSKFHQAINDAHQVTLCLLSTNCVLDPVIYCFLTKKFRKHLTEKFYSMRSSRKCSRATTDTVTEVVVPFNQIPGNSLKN

| Compound | IC50 [1] [nM] | IC50 [2] [nM] | Rate of loss [4] [µg/kg/min] | Rate of loss [5] [µg/kg/min] | decrease in blood pressure (PAF-induced hypotension; PAF 100 ng/kg i.v.) [%] | recovery time to pre-injection blood pressure level (PAF-induced hypotension; PAF 500 ng/kg i.v.) [min] | decrease in blood pressure (PAF-induced hypotension; PAF 500 ng/kg i.v.) [%] | ED50 [3] [µg/kg] | ED50 [6] [µg/kg] | ED50 (PAF-induced hypotension) [µg/kg] |
| --- | --- | --- | --- | --- | --- | --- | --- | --- | --- | --- |
| 1-O-alkyl-2-acetyl-sn-glyceryl-3-phosphoryl-choline [PAF, reference compound] |  |  |  |  | 30 | 10 | 52 |  |  |  |
| CCCCCCCCCCCCCCCCCCNC(=O)OCC1(COC(=O)N(Cc2cccc[n+]2CC)C(C)=O)CCCO1 (stereo not shown) [Example 1, 2-[Acetyl[[tetrahydro-2-[[[[(octadecyl)-amino]carbonyl]oxy]methyl]furan-2-yl]-methoxycarbonyl]aminomethyl]-1-ethylpyridinium chloride] | 40 | 10 | 0.35 | 0.3 |  |  |  | 2.5 | 2.8 | 3 |
| CCCCCCCCCCCCCCCCCCNC(=O)OCC1(COC(=O)NCc2cccc[n+]2CC)CCCO1 (stereo not shown) [Example 2, 2-[[[Tetrahydro-2-[[[[(octadecyl)amino]carbonyl]oxy]methyl]furan-2-yl]methoxycarbonyl]aminomethyl]-1-ethylpyridinium chloride] | 16000 | 800 |  |  |  |  |  |  |  |  |
| CCCCCCCCCCCCCCCCCCNC(=O)OCC1(COC(=O)NCCCCCc2cccc[n+]2CC)CCCO1.[Cl-] (stereo not shown) [Example 3, 2-[5-[[[Tetrahydro-2-[[[[(octadecyl)-amino]carbonyl]oxy]methyl]furan-2-yl]methoxycarbonyl]amino]pentyl]-1-ethylpyridinium chloride] | 300 | 20 | 0.65 | 0.66 |  |  |  | 5 | 8.5 | 27 |
| CCCCCCCCCCCCCCCCCCNC(=O)OCC1(COC(=O)N(CCCCCc2cccc[n+]2CC)C(C)=O)CCCO1.[Cl-] (stereo not shown) [Example 4, 2-[5-[Acetyl[[tetrahydro-2-[[[[(octadecyl)-amino]carbonyl]oxy]methyl]furan-2-yl]methoxycarbonyl]amino]pentyl]-1-ethylpyridinium chloride] | 130 | 8 | 1.10 | 0.35 |  |  |  | 15 | 17 |  |
| CCCCCCCCCCCCCCCCCCN(C(C)=O)C(=O)OCC1(COC(=O)N(Cc2cccc[n+]2CC)C(C)=O)CCCO1 (stereo not shown) [Example 5, 2-[Acetyl[[tetrahydro-2-[[[[[acetyl(octadecyl)amino]carbonyl]oxy]methyl]furan-2-yl]methoxycarbonyl]aminomethyl]-1-ethylpyridinium chloride] | 48 | 2 |  |  |  |  |  | 4 | 4 | 4.5 |
| CCCCCCCCCCCCCCCCCCNC(=O)OCC1(COC(=O)N(Cc2cccc[n+]2CC)C(=O)C(C)(C)C)CCCO1 (stereo not shown) [Example 6, 2-[Trimethylacetyl[[tetrahydro-2-[[[[(octadecyl)amino]carbonyl]oxy]methyl]furan-2-yl]methoxycarbonyl]aminomethyl]-1-ethylpyridinium chloride] | 500 | 85 |  |  |  |  |  |  |  |  |
| CCCCCCCCCCCCCCCCCCNC(=O)OCC1(COC(=O)N(Cc2cccc[n+]2CC)C(=O)c2ccccc2)CCCO1 (stereo not shown) [Example 7, 2-[Benzoyl[[tetrahydro-2-[[[[(octadecyl)amino]carbonyl]oxy]methyl]furan-2-yl]-methoxycarbonyl]aminomethyl]-1-ethylpyridinium chloride] | 840 | 16 |  |  |  |  |  |  |  |  |

More lines, main results first:

| IC50 [1] [nM] | IC50 [2] [nM] | Rate of loss [4] [µg/kg/min] | Rate of loss [5] [µg/kg/min] | Compound | decrease in blood pressure (PAF-induced hypotension; PAF 100 ng/kg i.v.) [%] | recovery time to pre-injection blood pressure level (PAF-induced hypotension; PAF 500 ng/kg i.v.) [min] | decrease in blood pressure (PAF-induced hypotension; PAF 500 ng/kg i.v.) [%] | ED50 [3] [µg/kg] | ED50 [6] [µg/kg] | ED50 (PAF-induced hypotension) [µg/kg] |
| --- | --- | --- | --- | --- | --- | --- | --- | --- | --- | --- |
| 350 | 60 | 0.92 | 0.88 | CCCCCCCCCCCCCCCCCCNC(=O)OC[C@@]1(C)CC[C@@](C)(COC(=O)N(Cc2cccc[n+]2CC)C(C)=O)O1 (relative stereo) [Example 9, Cis-2-[acetyl[[tetrahydro-2,5-dimethyl-5-[[[[(octadecyl)amino]carbonyl]oxy]methyl]furan-2-yl]methoxycarbonyl]aminomethyl]-1-ethylpyridinium chloride] |  |  |  | 20 | 15 |  |
| 550 | 560 | 10.21 | 30.0 | CCCCCCCCCCCCCCCCCCNC(=O)OC[C@@]1(C)CC[C@@](C)(COC(=O)NCc2cccc[n+]2CC)O1 (relative stereo) [Example 10, Cis-2-[[[tetrahydro-5-[[[[(octadecyl)amino]carbonyl]oxy]methyl]-2,5-dimethyl-furan-2-yl]methoxycarbonyl]aminomethyl]-1-ethylpyridinium chloride] |  |  |  | 150 | 60 |  |
| 2200 | 450 |  |  | CCCCCCCCCCCCCCCCCCNC(=O)OC[C@@]1(C)CC[C@@](C)(COC(=O)NCc2cc(C)cc(C)[n+]2C)O1 (relative stereo) [Example 11, Cis-2-[[[tetrahydro-2,5-dimethyl-5-[[[[(octadecyl)amino]carbonyl]oxy]methyl]furan-2-yl]methoxycarbonyl]aminomethyl]-1,4,6-trimethylpyridinium chloride] |  |  |  |  |  |  |
| 2000 | 2200 |  |  | CCCCCCCCCCCCCCCCCCNC(=O)OC[C@@]1(C)CC[C@@](C)(COC(=O)N(C)Cc2cccc[n+]2C)O1 (relative stereo) [Example 12, Cis-2-[methyl[[tetrahydro-2,5-dimethyl-5-[[[[(octadecyl)amino]carbonyl]oxy]methyl]furan-2-yl]methoxycarbonyl]aminomethyl]-1-methylpyridinium chloride] |  |  |  |  |  |  |
| 860 | 14 |  |  | CCCCCCCCCCCCCCCCCCOCC1(COC(=O)N(Cc2cccc[n+]2CC)C(C)=O)CCCO1 (stereo not shown) [Example 8, 2-[Acetyl[[tetrahydro-2-[(octadecyloxy)methyl]furan-2-yl]methoxycarbonyl]aminomethyl]-1-ethylpyridinium chloride] |  |  |  |  |  |  |
